Marks after values point to notes of the source that are not given here.
What was measured:
VM46 = test: Cell colony formation assay, VM46 cells; type: cell-based; settings: 72 hours drug exposure
Method: (§1) This example provides directions for growing cells and testing compounds of the invention for their effect on the growth of the cells. All cells were purchased from DCIDC Tumor Repository, NCI, NIH.
(§2) Four hundred cells (HCT 116, PC-3, NCI/ADR-RES: human breast cancer cells) or five hundred cells (VM46) were plated in 60 mm Petri dishes containing 2.7 ml of medium (modified McCoy's 5a medium) containing 10% fetal bovine serum and 100 units/ml penicillin and 100 mg/ml streptomycin. The cells were incubated in a CO2 incubator at 37° C. for 5 hours for attachment to the bottom of Petri dishes. Drugs were made fresh in medium at ten times the final concentration, and then 0.3 ml of this stock solution was added to the 2.7 ml of medium in the dish. The cells were then incubated with drugs for 72 hours at 37° C. At the end of the incubation the drug-containing media were decanted, the dishes were rinsed with 4 ml of Hank's Balance Salt Solution (HBSS), 5 ml of fresh medium was added, and the dishes were returned to the incubator for colony formation. The cell colonies were counted using colony counter after incubation for 7 days for HCT116 cells and PC-3 cells and 8 days for VM46 cells, respectively.
(§3) Values of ID50 (the drug concentration producing 50% inhibition of colony formation) may be determined for each tested compound. The directions described in this example may be used in other cells, such as DU-145.

PC-3 = test: Cell colony formation assay, PC-3 cells; type: cell-based, human; settings: 72 hours drug exposure
Method: as §1, §2, §3

HCT116 = test: Cell colony formation assay, HCT116 cells; type: cell-based, human; settings: 72 hours drug exposure
Method: as §1
as §2, with “The” for “Four hundred cells (HCT 116, PC-3, NCI/ADR-RES: human breast cancer cells) or five hundred cells (VM46) were plated in 60 mm Petri dishes containing 2.7 ml of medium (modified McCoy's 5a medium) containing 10% fetal bovine serum and 100 units/ml penicillin and 100 mg/ml streptomycin. The”

C3H/HeJ mice = settings: maximum tolerated dose at day 40, C3H/HeJ mice
Method: This example provides directions for performing in vivo toxicity tests of the compounds of the invention on C3H/HeJ mice.
Acute toxicities of the compounds of this invention are evaluated on C3H/HeJ mice (body weight 18-22 g). The MTD40 (maximum tolerated dose at day 40) values were determined by the standard procedure described by Gad and Chengelis (see, for example, “Acute Toxicology Testing,” 2nd Ed., Shayne O. Gad and Christopher P. Chengelis, pp. 186-195 (Academic Press)). In the consecutive type studies, 2 mice were dosed at low and moderate doses of 40 and 100 mg/kg. If no severe and irreversible toxicity (euthanasia is required) occurs at these doses, a new pair of animals was initiated at 180 mg/kg, which is 1.8 times higher than 100 mg/kg. Sequential dosages (about 3 doses on 3 pairs of animals, i.e. 2 mice for each drug dose) were increased by a factor of 1.8 until severe and irreversible toxicity (euthanasia is required) occurred. Then another pair of animals was initiated at the highest nonlethal dosage, and successive dosages were increased by a factor of 1.15. The result of this exercise was two dosages, one apparently nonlethal and the other lethal if severe and irreversible toxicity occurs and euthanasia is required, separated by a factor of 1.15. Six mice were dosed at each dosage. If no severe and irreversible toxicity occurred at the lower dosage and at least one with severe and irreversible toxicity occurred at the higher dose, then the lower dose was considered to be the MTD. The compounds of this invention were administered to C3H/HeJ mice by intraperitoneal injection. Drug toxicity was evaluated on mice checked daily for 45 days.

[1] = test system: MTG-B mouse mammary Adenocarcinoma; test: In vivo efficacy in C3H/HeJ mice bearing MTG-B tumors; settings: for T (Surviving days after treatment of MTG-B mouse mammary Adenocarcinoma In C3H/Hej mice): i.p., control mice survived 6 days; for CD/Taxol: ratio of extra days of survival with compound to extra days of survival with taxol, each compared to control; for T/C %: surviving days treated / surviving days control x 100%, control 6 days
Method: This example provides directions for performing in vivo efficacy tests of the compounds of the invention on C3H/HeJ mice bearing MTG-B tumors.
Studies on the compounds of this invention were performed on C3H/HeJ mice bearing […] tumors. […] Treatment was initiated at that time, with the first day of treatment designated as day 0 for calculation and plots. The mice were injected i.p. with thee drug dose levels (⅓, ½, 1×MTD) using both a single injection and the schedule of Q2D×3 (every 2 days for a total of 3 treatments at ⅓ MTD). Control groups of mice bearing 8 mm diameter tumors were treated with vehicle alone. […] When a tumor reached 1.5 g, the mouse bearing the tumor was euthanized. Surviving days measured from day 0 for mice treated with anticancer drugs (T) and surviving days measured from day 0 for control mice (C) were recorded. Tumor growth inhibition values (T/C %) were calculated using the formula T/C %=(surviving days of mice treated with an anticancer drug T/surviving days of control mice C)×100%, as shown in Table II.
The final right-hand column in Table II provides a ratio of the extra days of survival of mice treated with the compounds of the invention (compared to control) to the extra days of survival of mice treated with taxol (compared to control).

Row | Molecule | In vitro efficacy: Survival (%) of cells line VM46 (VM46; 1 nM) [%] | In vitro efficacy: Survival (%) of cells line VM46 (VM46; 10 nM) [%] | In vitro efficacy: Survival (%) of cells line PC-3 (PC-3; 1 nM) [%] | In vitro efficacy: Survival (%) of cells line PC-3 (PC-3; 5 nM) [%] | In Vitro Efficacy: Survival (%) of HCT116 (HCT116; 1 nM) [%] | In Vitro Efficacy: Survival (%) of HCT116 (HCT116; 10 nM) [%] | In Vivo Toxicity MTD40 (ip, mg/kg) in C3H/Hej Mice (C3H/HeJ mice) | In Vitro Efficacy: Survival (%) of HCT116 (HCT116; 100 nM) [%] | T (Surviving days after treatment of MTG-B mouse mammary Adenocarcinoma In C3H/Hej mice) [1] [days] | CD/Taxol [1] | T/C % [1] [%]
1 | CC[C@@]1(O)C(=O)OCc2c1cc1n(c2=O)Cc2cc3ccccc3nc2-1 [CPT, (S)-4-ethyl-4-hydroxy-1H-pyrano-[3′,4′:6,7]indolizino[1,2-b]quinoline-3,14(4H,12H)-dione, reference compound] | 77.64 | 0 | 93.85 | 33.09 | 100 | 73.72 | <20** mg/kg |  |  |  | 
2 | CCC1(OC(=O)COc2ccc(Cl)cc2C)C(=O)OCc2c1cc1n(c2=O)Cc2cc3ccccc3nc2-1 (stereo not shown) [Example 000127, Camptothecin-20-O-ester of 4-chloro-2-methylphenoxyacetic acid] | 47.33 | 0 | 88.97 | 31.46 | 86.48 | 0 | >150 mg/kg | 0 | 13 | 2.3 | 217
3 | CCC1(OC(=O)COc2ccc3c(C)c(Cl)c(=O)oc3c2)C(=O)OCc2c1cc1n(c2=O)Cc2cc3ccccc3nc2-1 (stereo not shown) [Example 000129] | 28.15 | 0 | 88.04 | 10.31 | 74.73 | 0 | 75 mg/kg | 0 | 12 | 2.0 | 200
4 | CCC1(OC(=O)COc2ccc3ccccc3c2)C(=O)OCc2c1cc1n(c2=O)Cc2cc3ccccc3nc2-1 (stereo not shown) [Example 000224, Camptothecin-20-O-ester of 2-napthoxyacetic acid] | 62.69 | 0 | 87.34 | 37.98 | 100 | 0 | >150 mg/kg | 0 | 7 | .3 | 117
5 | CCC1(OC(=O)COc2ccc(C=O)cc2)C(=O)OCc2c1cc1n(c2=O)Cc2cc3ccccc3nc2-1 (stereo not shown) [Example 000313, Camptothecin-20-O-ester of 4-formylphenoxyacetic acid] | 41.58 | 0 | 89.51 | 21.16 | 100 | 0 | >150 mg/kg | 0 | 9 | 1.0 | 150
6 | CCCCOCC(=O)OC1(CC)C(=O)OCc2c1cc1n(c2=O)Cc2cc3ccccc3nc2-1 (stereo not shown) [Example 000316, Camptothecin-20-O-ester of butyloxyacetic acid] | 77.50 | 0 | 85.72 | 54.79 | 100 | 0 | <150 mg/kg | 0 |  |  | 
7 | CCC1(OC(=O)COc2ccc(C(C)C)cc2)C(=O)OCc2c1cc1n(c2=O)Cc2cc3ccccc3nc2-1 (stereo not shown) [Example 000418, Camptothecin-20-O-ester of 4-isopropylphenoxyacetic acid] | 79.17 | 0 | 100 | 78.12 | 97.56 | 0 | >150 mg/kg | 0 |  |  | 
8 | CCC1(OC(=O)COc2ccc(OCc3ccccc3)cc2)C(=O)OCc2c1cc1n(c2=O)Cc2cc3ccccc3nc2-1 (stereo not shown) [Example 000425, Camptothecin-20-O-ester of 4-benzyloxyphenoxyacetic acid] | 80.46 | 0 | 99.28 | 71.61 | 100 | 0 | <150 mg/kg | 0 |  |  | 
9 | CCC1(OC(=O)COc2cccc(CBr)c2)C(=O)OCc2c1cc1n(c2=O)Cc2cc3ccccc3nc2-1 (stereo not shown) [Example 000501, Camptothecin-20-O-ester of 3-bromomethylphenoxyacetic acid] | 86.60 | 0 | 96.02 | 41.77 | 100 | 0 | <150 mg/kg | 0 |  |  | 
10 | CCC1(OC(=O)COc2ccc(C(=O)O)cc2)C(=O)OCc2c1cc1n(c2=O)Cc2cc3ccccc3nc2-1 (stereo not shown) [Example 000725, Camptothecin-20-O-ester of 4-carboxyphenoxyacetic acid] |  |  |  |  | 100 | 0 | >150 mg/kg | 0 |  |  | 
11 | Camptothecin-20-O-ester of ethylexyacetic acid [Example 000627] |  |  |  |  | 70.44 | 0 | <150 mg/kg | 0 |  |  | 

Reference: patent USRE39707E1, “Camptothecin derivatives” (Catholic Healthcare West, priority 2001, dated 2007)
